Measurements taken from ChEMBL document CHEMBL1649156, “Antianaerobic activity of sulopenem compared to six other agents” (2009).

Experiments:
Assay type in all cases: functional
Clostridioides difficile = assay: Antimicrobial activity in Clostridium difficile by CLSI agar dilution method in presence of Tazobactam
Clostridium sp. = assay: Antimicrobial activity in Clostridium sp. by CLSI agar dilution method in presence of Tazobactam
Clostridium tertium = assay: Antimicrobial activity in Clostridium tertium by CLSI agar dilution method in presence of Tazobactam
Thomasclavelia ramosa = assay: Antimicrobial activity in Clostridium ramosum by CLSI agar dilution method in presence of Tazobactam
Clostridium cadaveris = assay: Antimicrobial activity in Clostridium cadaveris by CLSI agar dilution method in presence of Tazobactam
[1] = test system: Paraclostridium bifermentans; assay: Antimicrobial activity in Clostridium bifermentans by CLSI agar dilution method in presence of Tazobactam
[Clostridium] innocuum = Antimicrobial activity in Clostridium innocuum by CLSI agar dilution method in presence of Tazobactam
[2] = test system: Paeniclostridium sordellii; assay: Antimicrobial activity in Clostridium sordellii by CLSI agar dilution method in presence of Tazobactam; conditions: Paraclostridium sordellii
Clostridium butyricum = assay: Antimicrobial activity in Clostridium butyricum by CLSI agar dilution method in presence of Tazobactam
Bacteroides fragilis = assay: Antimicrobial activity in Bacteroides fragilis by CLSI agar dilution method in presence of Tazobactam
[3] = test system: Bacteroides thetaiotaomicron; assay: Antimicrobial activity in Bacteroides thetaiotaomicron by CLSI agar dilution method in presence of Tazobactam
Bacteroides ovatus = assay: Antimicrobial activity in Bacteroides ovatus by CLSI agar dilution method in presence of Tazobactam
Phocaeicola vulgatus = assay: Antimicrobial activity in Bacteroides vulgatus by CLSI agar dilution method in presence of Tazobactam
[4] = test system: Parabacteroides distasonis; assay: Antimicrobial activity in Bacteroides distasonis by CLSI agar dilution method in presence of Tazobactam
Bacteroides uniformis = assay: Antimicrobial activity in Bacteroides uniformis by CLSI agar dilution method in presence of Tazobactam
Bacteroides stercoris = assay: Antimicrobial activity in Bacteroides stercoris by CLSI agar dilution method in presence of Tazobactam
Prevotella bivia = assay: Antimicrobial activity in Prevotella bivia by CLSI agar dilution method in presence of Tazobactam
Prevotella buccae = assay: Antimicrobial activity in Prevotella buccae by CLSI agar dilution method in presence of Tazobactam; conditions: Segatella buccae
[5] = test system: Prevotella melaninogenica; assay: Antimicrobial activity in Prevotella melaninogenica by CLSI agar dilution method in presence of Tazobactam
Prevotella denticola = assay: Antimicrobial activity in Prevotella denticola by CLSI agar dilution method in presence of Tazobactam
Prevotella intermedia = assay: Antimicrobial activity in Prevotella intermedia by CLSI agar dilution method in presence of Tazobactam
Prevotella nigrescens = assay: Antimicrobial activity in Prevotella nigrescens by CLSI agar dilution method in presence of Tazobactam
Prevotella corporis = assay: Antimicrobial activity in Prevotella corporis by CLSI agar dilution method in presence of Tazobactam
[6] = test system: Enterocloster clostridioformis; assay: Antimicrobial activity in Clostridium clostridioforme by CLSI agar dilution method in presence of Tazobactam
Tissierella praeacuta = assay: Antimicrobial activity in Clostridium hastiforme by CLSI agar dilution method in presence of Tazobactam
Porphyromonas gingivalis = assay: Antimicrobial activity in Porphyromonas gingivalis by CLSI agar dilution method in presence of Tazobactam

## CCN1CCN(C(=O)N[C@@H](C(=O)N[C@@H]2C(=O)N3[C@@H]2SC(C)(C)[C@@H]3C(=O)O)c2ccccc2)C(=O)C1=O [PIPERACILLIN]
Clostridioides difficile
  MIC: 8 µg/mL
  MIC50: 8 µg/mL
  MIC90: 16 µg/mL
Clostridium sp.
  MIC50: 1 µg/mL
  MIC90: 2 µg/mL
Clostridium tertium
  MIC: 4 µg/mL
  MIC50: 8 µg/mL
Thomasclavelia ramosa
  MIC: ≤ 0.125 µg/mL
Clostridium cadaveris
  MIC: ≤ 0.125 µg/mL
[1]
  MIC: 0.5 µg/mL
[Clostridium] innocuum
  MIC: ≤ 0.125 µg/mL
[2]
  MIC: ≤ 0.125 µg/mL
Clostridium butyricum
  MIC: 0.5 µg/mL
Bacteroides fragilis
  MIC50: 0.5 µg/mL
  MIC90: 2 µg/mL
[3]
  MIC50: 8 µg/mL
  MIC90: 16 µg/mL
Bacteroides ovatus
  MIC50: 2 µg/mL
  MIC90: 4 µg/mL
Phocaeicola vulgatus
  MIC50: 2 µg/mL
  MIC90: 16 µg/mL
[4]
  MIC50: 4 µg/mL
  MIC90: 4 µg/mL
Bacteroides uniformis
  MIC: 0.5 µg/mL
  MIC50: 1 µg/mL
Bacteroides stercoris
  MIC: ≤ 0.125 µg/mL
  MIC50: 1 µg/mL
Prevotella bivia
  MIC: ≤ 0.125 µg/mL
  MIC50: ≤ 0.125 µg/mL
  MIC90: ≤ 0.125 µg/mL
Prevotella buccae
  MIC: ≤ 0.125 µg/mL
  MIC50: ≤ 0.125 µg/mL
  MIC90: ≤ 0.125 µg/mL
[5]
  MIC: ≤ 0.125 µg/mL
  MIC50: ≤ 0.125 µg/mL
  MIC90: ≤ 0.125 µg/mL
Prevotella denticola
  MIC: ≤ 0.125 µg/mL
  MIC50: ≤ 0.125 µg/mL
  MIC90: ≤ 0.125 µg/mL
Prevotella intermedia
  MIC: ≤ 0.125 µg/mL
  MIC50: ≤ 0.125 µg/mL
  MIC90: ≤ 0.125 µg/mL
Prevotella nigrescens
  MIC: ≤ 0.125 µg/mL
  MIC50: ≤ 0.125 µg/mL
  MIC90: ≤ 0.125 µg/mL
Prevotella corporis
  MIC: ≤ 0.125 µg/mL
  MIC50: ≤ 0.125 µg/mL
[6]
  MIC: 8 µg/mL
Tissierella praeacuta
  MIC: 2 µg/mL
Porphyromonas gingivalis
  MIC: ≤ 0.125 µg/mL
